In this experiment the test system is E. coli K12. The experiment in a line: microbe, parasite or virus in culture. Conditions: Escherichia coli, K12, 24 h, read-out: minimum inhibitory concentration (MIC).

The source of these data is US20140120595A1 (priority 2008, published 2014).

≈ marks a conversion by molar mass, not a printed value.

Protocol: Overnight cultures of E. coli K12 were started in 5 mL LB containing no antibiotic 12-16 hours before the experiment was performed. LB broth was inoculated using aseptic technique. The culture was incubated overnight in a shaking incubator at 37 C.
The next morning 10 mL of M9 was inoculated with 100 μL of cells from the overnight culture. The tube was inverted to mix the cells prior to incubation at 37 C in the shaking incubator. While the cells were growing 96 well plates were prepared for inoculation.
A solution of concentrated M9 was made by combining 4 mL of 5×M9 salts, 40 μL of 20% glucose, 40 μL 1M MgSO4, and 2 μL of 1M CaCl2.
The plate was loaded as follows: 45 μL of concentrated M9 mixture was added to each well containing the compound concentrations and the following dilutions were performed:
Controls were prepared and loaded onto the plate as follows: 135 μL of H2O was added to positive control wells. 45 μL of the concentrated M9 mixture was added to each positive control well. 200 μL of water was added to each negative control well.
The OD600 of the cells from the overnight culture that was inoculated into M9 was checked using the spectrophotometer. The final OD600 of the cells was between 0.195 and 0.200. To achieve a final OD within this range the spectrophotometer was blanked with water. […]

Take `OCCCCO` [1,4-BDO, 1,4-butanediol]: the MIC is 50 mg/mL (≈ 555 mM).
